In PubChem BioAssay (NCI) one finds GI50 and TGI data, which are given here for nine molecules.

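96-well plates; 48 h exposure; 5 concentrations. Endpoints by linear interpolation between flanking doses. Not reached: highest tested concentration assigned. GI50 = concentration required for 50% inhibition of growth. TGI is the concentration that stops growth completely.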

Test systems include NCI-H226 lung; SR leukemia; DU-145 prostate; A549 NSCLC; MCF7 breast; SF-268 CNS; NCI-H23 lung; SF-295 CNS; NCI-H522 lung; SK-MEL-2 melanoma.
Holding throughout (experiment): DTP human tumour cell line panel, 48 h

`CC(C)CC(=O)O[C@H]1C(=O)O[C@@H]2C[C@H]3[C@H](C)C(=O)C(O[C@@H]4O[C@H](CO)[C@@H](O)[C@H](O)[C@H]4O)=C[C@]3(C)[C@H]3[C@@H](O)[C@H](O)[C@]4(C(=O)O)OC[C@]32[C@@H]14`: the GI50 in the experiment with NCI-H226 lung was 29.2 µM; in the experiment with SR leukemia, 33600 nM; in the experiment with DU-145 prostate, above 100 µM; in the experiment on A549 NSCLC, 42.1 µM; with MCF7 breast, 28 µM; in the experiment on SF-268 CNS it was above 100 µM. The total growth inhibition concentration (TGI) in the experiment with NCI-H226 lung is 92 µM; in the experiment with SR leukemia it was above 100 µM; with DU-145 prostate, above 100 µM; in the experiment with A549 NSCLC it was above 100 µM; in the experiment with MCF7 breast, above 100 µM; with SF-268 CNS it was above 100 µM. In the experiment with NCI-H23 lung, the total growth inhibition concentration (TGI) was above 100 µM.
`N#CCC1CCN(c2nc(Nc3ccc(N4CCC(O)CC4)cc3)c3c(=O)[nH]ncc3n2)CC1`: the GI50 is 0.639 µM in the experiment with NCI-H226 lung; 288 nM in the experiment on SR leukemia; 0.547 µM in the experiment with DU-145 prostate; 0.455 µM in the experiment with A549 NSCLC; 1440 nM in the experiment with SF-295 CNS; 0.297 µM in the experiment with MCF7 breast. Besides, the GI50 in the experiment on SF-268 CNS is 1.2 µM; with NCI-H23 lung it was 0.732 µM; in the experiment with NCI-H522 lung it was above 100 µM. Besides, the TGI in the experiment on NCI-H226 lung, in the experiment with SR leukemia, in the experiment on DU-145 prostate, with A549 NSCLC, with SF-295 CNS and in the experiment with MCF7 breast was above 100 µM throughout. For the same molecule, the total growth inhibition concentration (TGI) with SF-268 CNS, in the experiment with NCI-H23 lung and in the experiment with NCI-H522 lung was above 100 µM throughout.
On to `O=c1[nH]c(-c2ccncc2)nc2sc3c(c12)CCCCCC3`, for which the GI50 in the experiment on NCI-H226 lung, in the experiment on DU-145 prostate, in the experiment with SK-MEL-2 melanoma, with A549 NSCLC, in the experiment on MCF7 breast and in the experiment on SF-268 CNS was above 100 µM each time. For the same molecule, the GI50 in the experiment with NCI-H23 lung and in the experiment on NCI-H522 lung was above 100 µM each time. In addition, the concentration for total growth inhibition (TGI) in the experiment with NCI-H226 lung, in the experiment on DU-145 prostate, in the experiment on SK-MEL-2 melanoma, with A549 NSCLC, with MCF7 breast and in the experiment on SF-268 CNS was above 100 µM throughout. The TGI with NCI-H23 lung and in the experiment with NCI-H522 lung was above 100 µM in each case.
On to `C/C(=N\NC(N)=O)C(CN1CCOCC1)C(c1ccccc1)c1c(O)c2ccccc2oc1=O` (stereo unspecified), for which the total growth inhibition concentration (TGI) in the experiment with NCI-H226 lung, in the experiment with SR leukemia, in the experiment on DU-145 prostate, in the experiment with SK-MEL-2 melanoma, with A549 NSCLC and in the experiment with MCF7 breast was above 100 µM each time. In addition, the total growth inhibition concentration (TGI) in the experiment on SF-268 CNS, in the experiment on NCI-H23 lung and with NCI-H522 lung was above 100 µM throughout.
Take `Nc1nc(-c2ccccn2)c(-c2ccc3ncccc3n2)s1`: the GI50 in the experiment on NCI-H226 lung is above 25 µM; with DU-145 prostate, above 25 µM; with SK-MEL-2 melanoma, above 25 µM; with A549 NSCLC it was above 25 µM; in the experiment on SF-295 CNS, above 25000 nM; in the experiment with MCF7 breast, above 25 µM. In addition, the GI50 in the experiment on SF-268 CNS, in the experiment with NCI-H23 lung and in the experiment with NCI-H522 lung was above 25 µM each time. In addition, the TGI in the experiment on NCI-H226 lung, in the experiment on DU-145 prostate, with SK-MEL-2 melanoma, in the experiment on A549 NSCLC, with SF-295 CNS and in the experiment on MCF7 breast was above 25 µM throughout. Moreover, the TGI in the experiment on SF-268 CNS, with NCI-H23 lung and in the experiment with NCI-H522 lung was above 25 µM in each case.
On to `COc1ccc2c(c1)OCC1c3cc(OC)ccc3OC21` (stereo unspecified), for which the GI50 is 27.3 µM in the experiment with NCI-H226 lung; 1440 nM in the experiment on SR leukemia; above 100 µM in the experiment with DU-145 prostate; 94.3 µM with SK-MEL-2 melanoma; 89.1 µM in the experiment on A549 NSCLC; 20400 nM in the experiment on SF-295 CNS. Further, the GI50 is 38.7 µM in the experiment on MCF7 breast, 50.5 µM with SF-268 CNS and 36.2 µM in the experiment with NCI-H23 lung. Also, the TGI was above 100 µM with NCI-H226 lung; 29.6 µM in the experiment on SR leukemia; above 100 µM in the experiment on DU-145 prostate; above 100 µM with SK-MEL-2 melanoma; above 100 µM with A549 NSCLC; above 100 µM in the experiment on SF-295 CNS. Besides, the TGI in the experiment on MCF7 breast, in the experiment with SF-268 CNS and with NCI-H23 lung was above 100 µM in each case.
For `CCc1ccc2cc3c(ccc4ccccc43)c3c2c1CC3`, the GI50 in the experiment with NCI-H226 lung was above 100 µM; in the experiment with SR leukemia, above 100000 nM; with DU-145 prostate, above 100 µM; in the experiment on SK-MEL-2 melanoma, above 100 µM; in the experiment on A549 NSCLC, above 100 µM; in the experiment on MCF7 breast, 0.6 µM. The GI50 in the experiment on SF-268 CNS, with NCI-H23 lung and in the experiment with NCI-H522 lung was above 100 µM in each case. The TGI in the experiment with NCI-H226 lung, in the experiment on SR leukemia, with DU-145 prostate, in the experiment on SK-MEL-2 melanoma, with A549 NSCLC and in the experiment on MCF7 breast was above 100 µM throughout. The concentration for total growth inhibition (TGI) with SF-268 CNS, with NCI-H23 lung and in the experiment with NCI-H522 lung was above 100 µM throughout.
As to `COc1cc(C(=O)N[C@@H]2CCCN(C)C2)ccc1Nc1ncc2c(n1)N(C1CCCC1)CC(C)(C)C(=O)N2C`, the GI50 is 0.633 µM in the experiment on NCI-H226 lung; 36.9 nM in the experiment with SR leukemia; 0.0488 µM in the experiment with DU-145 prostate; 0.0549 µM in the experiment with A549 NSCLC; 109 nM in the experiment with SF-295 CNS; 0.0278 µM in the experiment with MCF7 breast. The GI50 in the experiment on SF-268 CNS was 0.588 µM; in the experiment on NCI-H23 lung, 0.041 µM; in the experiment on NCI-H522 lung it was 0.0209 µM. Besides, the concentration for total growth inhibition (TGI) in the experiment on NCI-H226 lung is 21.9 µM; in the experiment on SR leukemia it was 2.49 µM; in the experiment with DU-145 prostate it was 19.6 µM; in the experiment with A549 NSCLC it was 5.18 µM; with SF-295 CNS, 3.56 µM; with MCF7 breast, 11.6 µM. The TGI in the experiment with SF-268 CNS turned out to be 20.1 µM; in the experiment with NCI-H23 lung, 3.01 µM; in the experiment with NCI-H522 lung, 0.0575 µM.
As to `O=C(/C=C/c1c[nH]c2ccccc12)c1ccccc1O`, the TGI with NCI-H226 lung was determined as 42.8 µM; in the experiment on DU-145 prostate, 23.9 µM; in the experiment on SK-MEL-2 melanoma, 18.6 µM; in the experiment with A549 NSCLC it was 24.5 µM; with SF-295 CNS it was 22.3 µM; in the experiment on MCF7 breast, 18.7 µM. In addition, the TGI in the experiment with SF-268 CNS worked out at 40 µM; in the experiment with NCI-H522 lung it was 23 µM.
